Here are results for 72 compounds from PubChem BioAssay AID1850 (Southern Research Specialized Biocontainment Screening …, 2009).

Molecules are shown by their SMILES. pIC50: −log10 of the molar value.

This assay relates to Salmonella Typhi PhoP-promoter GFP reporter, fluorescence, 4 h. Briefly: PhoP regulon inhibitors, Salmonella typhi PhoP promoter GFP reporter, confirmatory (AID 1850).

As usually defined, the pIC50 is the IC50 on a negative log10 scale, so that one unit is a factor of ten. In the case of `OC(CNCC1CCCO1)Cn1c2ccc(Cl)cc2c2cc(Cl)ccc21` (configuration not stated), the pIC50 is 4.45. Consider `CCn1cc(C(=O)O)c(=O)c2ccc(C)nc21`, for which the pIC50 is 4.22.

For `N/C(=N\N=C/c1ccc(F)cc1)N/N=C\c1ccc(F)cc1`, the negative-log IC50 (pIC50) is 4.42. As to `NC(=O)SCC(=O)Nc1ccc(Cl)cc1`, the pIC50 is 4.87. Regarding `Oc1cc(Cl)ccc1Oc1ccc(Cl)cc1Cl`, the negative logarithm of the IC50 (pIC50) was 6.17. The value for `CC1=NN(c2nc3ccccc3[nH]2)C(=O)C1Cc1ccccc1` (configuration not stated) was 4.30. The value for `CCCCCCCSc1cc(OC)c(CCN(C)C)cc1OC` was 4.45; that for `CC(NCC(O)COc1ccc2ccccc2c1)c1ccccc1` (configuration not stated) was 4.10; that for `CN(C)CCCNc1c2ccccc2nc2ccccc12` was 4.46. With `CCCCCCCCCCCCCCCC[n+]1ccc(C(N)=O)cc1`, the negative-log IC50 (pIC50) is 4.98. For `Nc1cccc2c(=O)c3ccccc3[nH]c12`, the pIC50 was 4.67. Take `CCOC(=O)C1=C(C(C)=O)C(c2cccnc2)C(C#N)=C(N)O1` (configuration not stated): the pIC50 is 4.04. The value for `COC(=O)c1sccc1NC(=S)NCc1ccc(Cl)cc1` was 4.43; that for `COc1ccc(S(=O)(=O)N2CN3CCN(C3)C2)cc1` was 3.84; that for `CCCCCCCCCC[N+](C)(C)CC/C=C1/c2ccccc2Sc2ccc(Cl)cc21` was 4.88.

For the compound `O=C(Nc1nnc(-c2ccccn2)o1)c1cccc(Cl)c1`, the negative-log IC50 (pIC50) is 3.94. In the case of `Cc1ccc(C(C[N+](=O)[O-])c2c(N)n(C)c(=O)n(C)c2=O)cc1` (configuration not stated) it was 3.84.

Consider `CN(C)CCCNC(=S)NCC(c1ccc(Cl)cc1Cl)c1c[nH]c2ccccc12` (configuration not stated), for which the negative logarithm of the IC50 (pIC50) was 4.28. Take `CCn1cc(C(=O)O)c(=O)c2cc(F)c(N3CCN(C(=O)Nc4ccccc4)CC3)cc21`: the negative-log IC50 (pIC50) was 4.63. In the case of `CCc1ccc(-c2nn(-c3ccccc3)cc2CSC(=N)N)cc1` it was 4.49. `Cc1ccc(-c2csc(N=C(N)N)n2)c(C)c1`: the pIC50 was 4.30.

For `C#CCOCCOCCOCCNc1nc(N2CCN(C(=O)CCCCCCCCCCNC(=O)[C@H](CCCCN)n3cc(C)nn3)CC2)nc(N2CCN(C(=O)CCCCCCCCCCNC(=O)[C@H](CO)n3cc(CCCSC)nn3)CC2)n1`, the pIC50 was 3.95. Turning to `CC(C)(c1ccccc1)c1ccc(OCCCN2CCNCC2)cc1`, the negative logarithm of the IC50 (pIC50) was 4.25.

As for `Clc1cccc(/C=N\Nc2nccs2)c1`, the pIC50 is 4.73.

`CCCCCCCCNC(C)C(O)c1ccc(SC(C)C)cc1` (configuration not stated): the pIC50 is 4.60. For `O=C(N/N=C/c1ccc([N+](=O)[O-])o1)c1ccc(O)cc1`, the pIC50 was 4.70.

Consider `Nc1nc(N)c(Cc2ccc(Cl)cc2Cl)c(N)n1`, for which the negative-log IC50 (pIC50) is 4.02.

With `CCCCCCCCCCOC(=O)Cn1c(COc2ccccc2C)[n+](C)c2ccccc21`, the pIC50 is 4.88. In the case of `COc1c(N2CCN(C(=S)Nc3ccccc3F)C(C)C2)c(F)cc2c(=O)c(C(=O)O)cn(C3CC3)c12` (configuration not stated) it was 5.79; in that of `CCCCNCCCOc1cccc(Cl)c1Cl`, 3.83. `C=C1c2c(Cl)ccc(O)c2C(O)=C2C(=O)[C@]3(O)C(O)=C(C(N)=O)C(=O)[C@@H](N(C)C)[C@@H]3[C@@H](O)C12` (some centres not stated): the pIC50 is 6.10.

`Cc1ccccc1C(=O)NNC(=S)NC(=O)COc1ccccc1`: the pIC50 is 3.88. For `CCCCCc1ccc(OCCCC[n+]2ccccc2)c(CCCCC)c1`, the pIC50 was 4.45.

Regarding `O=C(CCN1CCOCC1)N/N=C/c1cc(Br)cc(Br)c1O`, the pIC50 is 4.51. Turning to `CN(C)C1C(=O)C(C(N)=O)=C(O)C2(O)C(=O)C3=C(O)c4c(O)cccc4C(C)(O)C3C(O)C12` (configuration not stated), the pIC50 is 6.00. Turning to `O=c1[nH]cc(F)c(=O)[nH]1`, the pIC50 is 5.52.

In the case of `COc1cc(CNCCc2c[nH]c3ccccc23)ccc1OCc1ccccc1F`, the negative-log IC50 (pIC50) is 3.88.

In the case of `COc1ccc(CNc2ncnc3c2[nH]c2ccccc23)cc1`, the pIC50 is 4.07. As for `NC1=NC[C@H](c2ccccc2)N1CCc1cc(C(F)(F)F)cc(C(F)(F)F)c1`, the negative-log IC50 (pIC50) was 4.12.

Take `Cc1nnc(N/N=C/c2ccccn2)[nH]c1=O`: the negative logarithm of the IC50 (pIC50) is 4.48. `OCCN1CCN(C2Cc3cc(Cl)ccc3Sc3ccc(Cl)cc32)CC1` (configuration not stated) (tested in a mixture with another compound): the pIC50 is 4.46. In the case of `COc1ccc(CNCC(O)COc2ccc(C(C)(C)c3ccccc3)cc2)cc1` (configuration not stated), the pIC50 was 4.68. With `CCCCCCCCCCCCCCCC[N+](C)(C)C`, the pIC50 was 4.62. For the compound `CC1(CC(=O)N/N=C/c2cc([N+](=O)[O-])c(O)cc2O)OCCO1`, the negative logarithm of the IC50 (pIC50) was 4.11. Regarding `OCCN1CCN(C2CCC(c3ccc(F)cc3)c3ccc(F)cc32)CC1` (configuration not stated), the pIC50 was 4.44.

For `O=C(N/N=C/c1ccccc1O)c1ccncc1`, the pIC50 was 4.44. Turning to `O=C(NNC(=S)NC(=O)c1ccccc1)c1ccc(O)cc1`, the pIC50 was 4.22. As for `C[N+]12CN3CN(CN(C3)C1)C2`, the pIC50 is 4.06. The value for `CN(C)CCCn1c(SCC(=O)N2c3ccccc3Sc3ccccc32)nc2ccccc2c1=O` was 4.20. Turning to `N=c1n(CCN2CCCCC2)c2ccccc2n1CC(=O)c1ccc(Cl)c(Cl)c1`, the pIC50 was 4.46. In the case of `CCCCCCCCCCOC(=O)Cn1c(COc2cccc(OC)c2)[n+](C)c2ccccc21`, the pIC50 is 4.90. In the case of `O=C(N/N=C/c1cc(Br)cc(Br)c1O)c1ccncc1`, the negative logarithm of the IC50 (pIC50) was 4.36. As for `O=C(Cn1nc(C(F)F)cc1C(F)F)NNC(=S)Nc1ccc([N+](=O)[O-])cc1`, the pIC50 is 3.86.

Consider `O=C(Cn1cc[n+](CC(=O)c2ccc(Cl)cc2Cl)c1)c1ccc(Cl)cc1Cl`, for which the negative-log IC50 (pIC50) is 4.43.

With `Cc1[nH]cnc1C(=O)N/N=C/c1ccc([N+](=O)[O-])s1`, the negative-log IC50 (pIC50) is 4.69. In the case of `Cc1cc2oc(=O)cc(CN3CCN(C/C=C/c4ccccc4)CC3)c2cc1O` it was 4.09; in that of `Cc1cc(NC2CCCCC2)nc(NCc2ccccc2)n1`, 4.47; in that of `CS(=O)(=O)c1ccc([C@@H](O)[C@@H](CF)NC(=O)C(Cl)Cl)cc1`, 5.28. Consider `CCCCCCCCCCOC(=O)Cn1c(COc2cccc(C)c2)[n+](C)c2ccccc21`, for which the pIC50 is 4.91. As to `Nc1nc(Nc2ccc(Cl)cc2)nc2ccccc12`, the pIC50 is 4.82. With `CCn1cc(C(=O)O)c(=O)c2cc(F)c(N3CCN(C(=S)NC(=O)c4ccccc4C)CC3)cc21`, the negative logarithm of the IC50 (pIC50) is 4.83.

For the compound `Nc1c(Cl)ncnc1N/N=C/c1ccccn1`, the pIC50 was 4.47. With `Cc1ccccc1S(=O)(=O)NNC(=O)C(=O)NNc1ccccn1`, the negative-log IC50 (pIC50) was 4.13. On to `Cc1ccc(C)c(N/C(N)=N/c2nc(C)cc(C)n2)c1`, for which the pIC50 was 3.85. With `COc1cc(/C=N/NC(=O)c2cncc(Br)c2)cc([N+](=O)[O-])c1O`, the negative-log IC50 (pIC50) was 4.20. As to `O=C(Nc1nnc(C2COc3ccccc3O2)o1)c1ccc(F)cc1` (configuration not stated), the pIC50 was 4.44. As to `OC(c1cc(C(F)(F)F)nc2c(C(F)(F)F)cccc12)C1CCCCN1` (configuration not stated), the pIC50 is 4.69. In the case of `O=C(Nc1cccc(Br)c1)c1cc2ccccc2o1`, the pIC50 was 4.60. On to `CCN1CCN(CCNC(=O)c2ccc3c(c2)N(Cc2ccc(F)cc2)C(=O)/C(=C/c2ccccc2)S3)CC1`, for which the negative-log IC50 (pIC50) was 4.35. Consider `O=C(OCC(=O)N1CCOCC1)c1ccc[nH]c1=O`, for which the pIC50 was 4.44. For `CCOC(=O)c1ccccc1-n1c(C)cc(C2N=C(N)Nc3nc4ccccc4n32)c1C` (configuration not stated), the negative-log IC50 (pIC50) was 4.44. Take `Cc1ccc2c(c1)sc(-c1ccc(N(C)C)cc1)[n+]2C`: the pIC50 is 4.62.
